Counter-ions that a name gives are not always drawn.

T1 sequence (P23975 whole entry): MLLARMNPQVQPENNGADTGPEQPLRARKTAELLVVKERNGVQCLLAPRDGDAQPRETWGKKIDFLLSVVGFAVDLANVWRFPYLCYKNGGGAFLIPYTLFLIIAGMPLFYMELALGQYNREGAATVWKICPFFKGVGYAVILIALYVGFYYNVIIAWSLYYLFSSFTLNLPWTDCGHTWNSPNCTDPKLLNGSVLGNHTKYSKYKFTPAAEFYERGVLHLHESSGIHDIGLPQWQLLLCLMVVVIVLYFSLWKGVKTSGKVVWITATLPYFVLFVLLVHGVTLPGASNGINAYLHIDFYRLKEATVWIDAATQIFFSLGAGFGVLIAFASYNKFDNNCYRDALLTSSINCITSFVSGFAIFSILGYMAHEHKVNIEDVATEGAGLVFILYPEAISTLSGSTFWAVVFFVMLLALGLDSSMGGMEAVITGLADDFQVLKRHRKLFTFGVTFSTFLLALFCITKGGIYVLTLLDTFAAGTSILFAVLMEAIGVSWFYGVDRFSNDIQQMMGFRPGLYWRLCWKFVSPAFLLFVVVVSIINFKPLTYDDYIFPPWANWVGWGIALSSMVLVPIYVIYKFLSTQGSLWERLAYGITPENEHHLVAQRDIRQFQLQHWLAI

One experiment has as its target T1, hNET (Homo sapiens, UniProt P23975).
T1 construct: expressed in transfected cells
Briefly: Norepinephrine (NE) uptake assay in MDCK-Net6 cells stably transfected with human hNET. As to conditions: MDCK-Net6, read-out: % Inhibition @ 1 μM (hNET). Type of experiment: cell-based. The protocol: Cells were plated at 300,000/T75 flask and cells were split twice weekly. […] Cells were plated at 250,000 cells/T75 flask and split twice weekly.
On day 1, cells were plated at 3,000 cells/well in growth medium and maintained in a cell incubator (37° C., 5% CO2). On day 2, growth medium was replaced with 200 μl of assay buffer (25 mM HEPES; 120 mM NaCl; 5 mM KCl; 2.5 mM CaCl2; 1.2 mM MgSO4; 2 mg/ml glucose (pH 7.4, 37° C.)) containing 0.2 mg/ml ascorbic acid and 10 μM pargyline. Plates containing cells with 200 μl of assay buffer were equilibrated for 10 minutes at 37° C. prior to addition of compounds. A stock solution of desipramine was prepared in DMSO (10 mM) and delivered to triplicate wells containing cells for a final test concentration of 1 μM. Data from these wells were used to define non-specific NE uptake (minimum NE uptake). Test compounds were prepared in DMSO (10 mM) and diluted in assay buffer according to test range (1 to 10,000 nM). Twenty-five microliters of assay buffer (maximum NE uptake) or test compound were added directly to triplicate wells containing cells in 200 μl of assay buffer. The cells in assay buffer with test compounds were incubated for 20 minutes at 37° C. To initiate the NE uptake, [^3H]NE diluted in assay buffer (120 nM final assay concentration) was delivered in 25 μl aliquots to each well and the plates were incubated for 5 minutes (37° C.). The reaction was terminated by decanting the supernatant from the plate. The plates containing cells were washed twice with 200 μl assay buffer (37° C.) to remove free radioligand. The plates were then inverted, left to dry for 2 minutes, then reinverted and air-dried for an additional 10 minutes. The cells were lysed in 25 μl of 0.25 N NaOH solution (4° C.), placed on a shake table and vigorously shaken for 5 minutes. After cell lysis, 75 μl of scintillation cocktail was added to each well and the plates were sealed with film tape. The plates were returned to the shake table and vigorously shaken for a minimum of 10 minutes to ensure adequate partitioning of organic and aqueous solutions. The plates were counted in a Wallac Microbeta counter (PerkinElmer) to collect the raw cpm data.
For each experiment, a data stream of cpm values collected from the Wallac Microbeta counter was downloaded to a Microsoft Excel statistical application program. Calculations of EC50 values were made using the transformed-both-sides logistic dose response program written by Wyeth Biometrics Department.
For the compound `CNC[C@@H](O)[C@H](c1ccc(Cl)cc1)n1ccc2ccccc21` [Example 34, (1S,2R)-1-(4-chlorophenyl)-1-(1H-indol-1-yl)-3-(methylamino)propan-2-ol hydrochloride], the inhibition at 1 µM worked out at 78.4%.

Turning to `CNC[C@@H](O)[C@H](c1ccccc1Cl)n1ccc2ccccc21` [Example 38, (1S,2R)-1-(2-chlorophenyl)-1-(1H-indol-1-yl)-3-(methylamino)propan-2-ol hydrochloride], the inhibition at 1 µM came out at 71.9%.

With `CNC[C@@H](O)[C@H](c1cccc(Br)c1)n1ccc2ccccc21` [Example 43, (1S,2R)-1-(3-bromophenyl)-1-(1H-indol-1-yl)-3-(methylamino)propan-2-ol hydrochloride], the inhibition at 1 µM turned out to be 99%.

On to `CNC[C@@H](O)[C@H](c1cccc(F)c1)n1ccc2ccccc21` [Example 47, (1S,2R)-1-(3-fluorophenyl)-1-(1H-indol-1-yl)-3-(methylamino)propan-2-ol hydrochloride], for which the inhibition at 1 µM stood at 99.9%.

In the case of `CNC[C@@H](O)[C@H](c1ccccc1F)n1ccc2ccccc21` [Example 50, (1S,2R)-1-(2-fluorophenyl)-1-(1H-indol-1-yl)-3-(methylamino)propan-2-ol hydrochloride], the inhibition at 1 µM worked out at 91.8%.

With `CNC[C@@H](O)[C@H](c1ccc(F)cc1)n1ccc2ccccc21` [Example 51, (1S,2R)-1-(4-fluorophenyl)-1-(1H-indol-1-yl)-3-(methylamino)propan-2-ol hydrochloride], the inhibition at 1 µM was determined as 87%.

Regarding `CNC[C@@H](O)[C@H](c1cccc(C)c1)n1ccc2ccccc21` [Example 52, (1S,2R)-1-(1H-indol-1-yl)-3-(methylamino)-1-(3-methylphenyl)propan-2-ol hydrochloride], the inhibition at 1 µM is 94.3%.

As to `CNC[C@@H](O)[C@H](c1ccc(C)cc1)n1ccc2ccccc21` [Example 59, (1S,2R)-1-(1H-indol-1-yl)-3-(methylamino)-1-(4-methylphenyl)propan-2-ol hydrochloride], the inhibition at 1 µM is 93.2%.

Regarding `CNC[C@@H](O)[C@H](c1cccc(OC)c1)n1ccc2ccccc21` [Example 69, (1S,2R)-1-(1H-indol-1-yl)-1-(3-methoxyphenyl)-3-(methylamino)propan-2-ol hydrochloride], the inhibition at 1 µM worked out at 87.5%.

For the compound `CNC[C@@H](O)[C@H](c1ccccc1)n1ccc2cc(F)ccc21` [Example 75, (1S,2R)-1-(5-fluoro-1H-indol-1-yl)-3-(methylamino)-1-phenylpropan-2-ol hydrochloride], the inhibition at 1 µM stood at 88.4%.

With `CNC[C@@H](O)[C@H](c1ccccc1)n1ccc2cc(OC)ccc21` [Example 76, (1S,2R)-1-(5-methoxy-1H-indol-1-yl)-3-(methylamino)-1-phenylpropan-2-ol hydrochloride], the inhibition at 1 µM was determined as 75.2%.

The experiment is the same for the next values; noted with them: test compound 1 μM; [3H]NE uptake, MDCK-Net6 cells; read-out: % Inhibition @ 1 μM (hNET).
`CNC[C@@H](O)[C@H](c1cccc(OC(F)(F)F)c1)n1ccc2ccccc21` [Example 35, (1S,2R)-1-(1H-indol-1-yl)-3-(methylamino)-1-[3-(trifluoromethoxy)phenyl]propan-2-ol hydrochloride]: the inhibition at 1 µM was 94.3%.

Take `CNC[C@@H](O)[C@H](c1ccccc1OC(F)(F)F)n1ccc2ccccc21` [Example 36, (1S,2R)-1-(1H-indol-1-yl)-3-(methylamino)-1-[2-(trifluoromethoxy)phenyl]propan-2-ol hydrochloride]: the inhibition at 1 µM is 82.3%.

Take `CNC[C@H](O)[C@@H](c1ccccc1OC(F)(F)F)n1ccc2ccccc21` [Example 37, (1R,2S)-1-(1H-indol-1-yl)-3-(methylamino)-1-[2-(trifluoromethoxy)phenyl]propan-2-ol hydrochloride]: the inhibition at 1 µM was found to be 21.4%.

Take `NCC[C@@H](O)[C@H](c1cccc(Cl)c1)n1ccc2ccccc21` [Example 42, (1S,2R)-4-amino-1-(3-chlorophenyl)-1-(1H-indol-1-yl)butan-2-ol hydrochloride]: the inhibition at 1 µM amounted to 95.7%.

Turning to `CNC[C@@H](O)[C@H](c1cccc(C#N)c1)n1ccc2ccccc21` [Example 44, 3-[(1S,2R)-2-hydroxy-1-(1H-indol-1-yl)-3-(methylamino)propyl]benzonitrile hydrochloride], the inhibition at 1 µM turned out to be 98.2%.

For the compound `CNC[C@@H](O)[C@H](c1cccc(F)c1)n1cc(-c2cccc(C)c2)c2ccccc21` [Example 48, (1S,2R)-1-(3-fluorophenyl)-3-(methylamino)-1-[3-(3-methylphenyl)-1H-indol-1-yl]propan-2-ol hydrochloride], the inhibition at 1 µM was 96.6%.

For `CNC[C@@H](O)[C@H](c1ccc(F)cc1)n1cc(C)c2ccccc21` [Example 49, (1S,2R)-1-(4-fluorophenyl)-3-(methylamino)-1-(3-methyl-1H-indol-1-yl)propan-2-ol hydrochloride], the inhibition at 1 µM turned out to be 101%.

For `CCNC[C@@H](O)[C@H](c1cccc(F)c1)n1ccc2ccccc21` [Example 55, (1S,2R)-3-(ethylamino)-1-(3-fluorophenyl)-1-(1H-indol-1-yl)propan-2-ol hydrochloride], the inhibition at 1 µM worked out at 61.1%.

Take `O[C@H](CN1CCOCC1)[C@H](c1cccc(F)c1)n1ccc2ccccc21` [Example 56, (1S,2R)-1-(3-fluorophenyl)-1-(1H-indol-1-yl)-3-morpholin-4-ylpropan-2-ol hydrochloride]: the inhibition at 1 µM came out at 12.3%.

Consider `CCCNC[C@@H](O)[C@H](c1cccc(F)c1)n1ccc2ccccc21` [Example 57, (1S,2R)-1-(3-fluorophenyl)-1-(1H-indol-1-yl)-3-(propylamino)propan-2-ol hydrochloride], for which the inhibition at 1 µM worked out at 17.5%.

`CN1CCN(C[C@@H](O)[C@H](c2cccc(F)c2)n2ccc3ccccc32)CC1` [Example 58, (1S,2R)-1-(3-fluorophenyl)-1-(1H-indol-1-yl)-3-(4-methylpiperazin-1-yl)propan-2-ol dihydrochloride]: the inhibition at 1 µM was determined as 26.5%.

For the compound `CNC[C@@H](O)[C@H](c1cccc(F)c1)n1cc(-c2ccccc2C)c2ccccc21` [Example 62, (1S,2R)-1-(3-fluorophenyl)-3-(methylamino)-1-[3-(2-methylphenyl)-1H-indol-1-yl]propan-2-ol], the inhibition at 1 µM came to 99.7%.

Take `CNC[C@@H](O)[C@H](c1ccccc1)N1CCc2cccc(C)c21` [Example 66, (1S,2R)-3-(methylamino)-1-(7-methyl-2,3-dihydro-1H-indol-1-yl)-1-phenylpropan-2-ol hydrochloride]: the inhibition at 1 µM was found to be 86.6%.

With `CNC[C@@H](O)[C@H](c1ccccc1)n1ccc2cccc(OC)c21` [Example 77, (1S,2R)-1-(7-methoxy-1H-indol-1-yl)-3-(methylamino)-1-phenylpropan-2-ol hydrochloride], the inhibition at 1 µM worked out at 77.3%.

Take `CNC[C@@H](O)[C@H](c1ccccc1)n1ccc2c(OC)cccc21` [Example 78, (1S,2R)-1-(4-methoxy-1H-indol-1-yl)-3-(methylamino)-1-phenyl propan-2-ol hydrochloride]: the inhibition at 1 µM is 70.9%.

Turning to `CNC[C@@H](O)[C@H](c1ccccc1)n1ccc2ccc(OC)cc21` [Example 79, (1S,2R)-1-(6-methoxy-1H-indol-1-yl)-3-(methylamino)-1-phenyl propan-2-ol hydrochloride], the inhibition at 1 µM amounted to 66%.

(Values after patent US20090093469A1, “Phenylaminopropanol Derivatives and Methods of Their Use” (WYETH, priority 2004, published 2009).)
